The subject of assay [1] is rat articular cartilage. The assay can be described thus: Papain-induced OA rat model, Safranin O-stained GAG histomorphometry. Type of assay: in vivo, Sprague-Dawley rats. The settings on record: for GAG level (red:total ratio) versus OA group: p<0.01. As for the experimental part: (§1) Fifty-four 12-week-old male Sprague-Dawley rats (250-300 gm) were purchased from BioLASCO Taiwan and housed under standard laboratory conditions (temperature 24° C., 12-hour light-dark cycle) with food and water ad libitum. The animals were acclimatized to the laboratory environment for 1 week before the experiments.
(§2) Rats were divided into the following 3 groups: OA (OA induction without PTH [1-34] treatment) (n=18), OA plus PTH (PTH [1-34] treatment followed by OA induction) (n=18), and PTH (PTH [1-34] treatment without OA induction) (n=18). Each left knee, which served as the contralateral control joint, was injected with vehicle without PTH treatment or OA induction. The right knees were the study joints. OA was induced in the right knees of rats in the OA and OA plus PTH groups with intraarticular injections of 20 μl of 4% papain solution and 20 μl of 0.03M cysteine. The injections were given with a 26-gauge needle via the patellar tendon on days 1, 4, and 7 of the experiment (see e.g., Nucl Med Commun (1996) 17(6): 529-35). In the OA plus PTH group, after OA induction, the right knees were injected intraarticularly with 40 μl of 10 nM PTH (1-34) every 3 days until rats were killed. In the PTH group, the same PTH (1-34) treatment was performed but without OA induction. Six rats from each group were killed by CO2 inhalation at the same time points as rats in the OA plus PTH group, in which PTH (1-34) treatment was given for 1, 3, and 5 weeks.
(§3) After rats were killed, the knees were harvested, and the tibia plateaus with articular cartilage were collected and fixed with 10% neutral buffered formalin prior to histologic preparation. The samples were then decalcified in 10% formic acid/PBS. The decalcified tibia articular samples were paraffin embedded, and 5-μm microsections in the coronary plane were prepared. GAG was stained with Safranin O-fast green (1% Safranin O counterstained with 0.75% hematoxylin and then 1% fast green) (Sigma, St. Louis Mo.). Localized type II collagen and type X collagen were immunostained. Apoptotic cells in cartilage were TUNEL stained.
GAG was stained red by Safranin O, and the total and red-stained areas in the articular cartilage of each proximal tibia were measured using Image-Pro Plus software, version 5.0. The ratio of red stained area to total area (red:total) in each group was calculated.
Methods are as described above in the Sections entitled “Animal Experiments” and “Osteoarthritis Induction and PTH Treatment” except that the concentration of the administered dose of PTH (1-34) was 5 nM, 10 nM, or 100 nM. Safranin O-stained articular cartilage in the proximal tibia from the contralateral control joints of rats in the OA group and the study joints of rats in the OA and OA plus PTH groups are measured for the ratio of Safranin O-stained area to total area. The ratios of Safranin O-stained area to total area (red/total) among all groups after 5 weeks of PTH treatment are compared. Bars show the mean and SEM of 6 samples. Data are evaluated by one-way analysis of variance, and multiple comparisons are performed using Scheffe's method. **=P<0.01: the control joints versus study joints in the OA group at the indicated time point; ##=P<0.01: the OA joints versus study joints in groups of OA plus PTH 5 nM, OA plus PTH 10 nM, and OA plus PTH 100 nM.

Assay [2] relates to rat articular cartilage. The experiment in a line: Papain-induced OA rat model, type II and type X collagen immunohistochemistry. Type of assay: in vivo, Sprague-Dawley rats. The settings on record: OA plus PTH group, 10 nM intraarticular. The protocol: as §1, §2, §3
The tibia articular sections were rehydrated, and the endogenous peroxidase in tissue was blocked with 3% hydrogen peroxide. Samples were digested by enzymes for epitope retrieval before incubation with primary antibodies (see e.g. J Histochem Cytochem (2002) 50(8): 1049-58). The optimal condition for enzyme digestion for type II collagen immunostaining was a mixture of 2.5% hyaluronidase and 1 mg/ml of Pronase in PBS (pH 7.4; Sigma) at 37° C. for 1 hour. […] The relative density of immunostaining (density/area; mean±SEM area 25.44±2.77 mm^2) was measured using Image-Pro Plus software, version 5.0 (Media Cybernetics).

Data on one substance can be found in patent US8586533B2, “Treatment of early-stage osteoarthritis” (Kaohsiung Medical University, priority 2008, dated 2013).

As to “PTH (1-34): 34-amino acid long peptide made up of amino-terminal amino acids 1 through 34 of human parathyroid hormone”, the “GAG level (red:total ratio) versus OA group” value with rat articular cartilage [1] (5 nM, intraarticular every three days, 5 weeks) is on record as “significantly higher”; in the assay on rat articular cartilage [1] (10 nM, intraarticular every three days, 5 weeks) it was “significantly higher”; with rat articular cartilage [1] (100 nM, intraarticular every three days, 5 weeks), “significantly higher”. Besides, in the assay on rat articular cartilage [1] (5, 10, or 100 nM, intraarticular every three days, 5 weeks), the “GAG level, control group versus PTH-treated groups” value is “no significant difference”. The “red:total ratio versus contralateral control” value in the assay with rat articular cartilage [1] (OA plus PTH group, 10 nM intraarticular, 1 and 3 weeks, P<0.01) is “significantly lower”. Further, in the assay on rat articular cartilage [1] (OA plus PTH group, 10 nM intraarticular, 5 weeks), the “red:total ratio versus contralateral control cartilage” value was “not significantly different”. In the assay on rat articular cartilage [1] (OA plus PTH group, intraarticular 40 μl of 10 nM every 3 days, 1, 3, and 5 weeks, P<0.01), the “red:total ratio (Safranin O-stained area to total area, GAG) versus OA group” value is reported as “significantly higher”. Also, the “red:total ratio, study cartilage versus contralateral control cartilage” value in the assay on rat articular cartilage [1] (PTH group (no OA induction), 10 nM intraarticular, any time point) is on record as “no significant differences”. Also, the “Immunolocalized type X collagen in cartilage compared with OA group” value in the assay with rat articular cartilage [2] (3 and 5 weeks) is reported as “less evident”. In addition, in the assay on rat articular cartilage [2] (3 weeks), the “density of immunolocalized type II collagen versus contralateral control cartilage” value is “not different”. In addition, in the assay with rat articular cartilage [2] (3 weeks, P<0.05), the “density of immunolocalized type II collagen versus OA group” value is given as “significantly higher”. The “density of immunolocalized type II collagen versus OA group (P<0.01) and contralateral control (P<0.05)” value with rat articular cartilage [2] (5 weeks) is recorded as “significantly higher”.
